GI50 and TGI data for 11 compounds are collected here from PubChem BioAssay (NCI).

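Step 1: Grow cells in 96-well plates. Step 2: Expose to compound for 48 hours at 5 concentrations. Step 3: Interpolate endpoints linearly; if unreached, use highest concentration. At the GI50, growth is halved. At the TGI there is no net growth.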

Among the test systems are SK-OV-3 ovarian; HS 578T breast; ACHN renal; A498 renal; CCRF-CEM leukemia; HOP-92 NSCLC; T-47D breast; SK-MEL-5 melanoma; MCF7 breast; OVCAR-3 ovarian.
Holding throughout (test): growth of human tumour cells (NCI), 48 h

Turning to `CN1CCN(Cc2ccc(NC(=O)c3cccc(C#Cc4cnc(N)c5ncccc45)c3F)cc2C(F)(F)F)CC1`, the GI50 with SK-OV-3 ovarian is 1.39 µM; in the assay with HS 578T breast it was 1.29 µM; in the assay on ACHN renal, 0.477 µM; in the assay on A498 renal, 1.59 µM; with CCRF-CEM leukemia, 1.01 µM; in the assay on HOP-92 NSCLC it was 1.27 µM. Besides, the GI50 was 5.78 µM with T-47D breast, 4.3 µM in the assay on SK-MEL-5 melanoma, 0.793 µM in the assay on MCF7 breast and 5.07 µM with OVCAR-3 ovarian. The TGI in the assay on SK-OV-3 ovarian stood at 7.46 µM; with HS 578T breast, 8.66 µM; in the assay with ACHN renal, 1.09 µM; with A498 renal it was 4.61 µM; in the assay on CCRF-CEM leukemia it was 3.67 µM; in the assay with HOP-92 NSCLC, 4.63 µM. The TGI in the assay on T-47D breast was 14.8 µM; in the assay on SK-MEL-5 melanoma, 12.1 µM; in the assay with MCF7 breast, 1.72 µM; in the assay with OVCAR-3 ovarian, 12 µM.

`COc1ccc2nc3ccc(OC)cc3c(SCc3ccccc3)c2c1`: the TGI is above 100 µM in the assay on SK-OV-3 ovarian; above 100 µM in the assay with HS 578T breast; above 100 µM with ACHN renal; above 100 µM in the assay on A498 renal; above 94.1 µM in the assay on CCRF-CEM leukemia; above 100 µM in the assay on HOP-92 NSCLC. Besides, the TGI with T-47D breast, in the assay with SK-MEL-5 melanoma, in the assay on MCF7 breast and with OVCAR-3 ovarian was above 100 µM throughout.

With `COC(=O)C1=C(C)C=C(N2CCOCC2)C(C(=O)OC)C1c1ccccc1` (stereo not given), the TGI in the assay with SK-OV-3 ovarian, in the assay with HS 578T breast, in the assay with ACHN renal, in the assay on A498 renal, in the assay with CCRF-CEM leukemia and with HOP-92 NSCLC was above 10 µM in each case. In addition, the TGI in the assay with T-47D breast, in the assay with SK-MEL-5 melanoma, in the assay on MCF7 breast and with OVCAR-3 ovarian was above 10 µM throughout.

Regarding `CCOc1cc2oc(C)cc(=O)c2c(OC)c1C=Nc1ccc(Cn2c(C)nc3ccccc32)cc1`, the TGI with SK-OV-3 ovarian, in the assay with HS 578T breast, in the assay with ACHN renal, with A498 renal, with CCRF-CEM leukemia and in the assay with HOP-92 NSCLC was above 100 µM throughout. The TGI in the assay on T-47D breast, with SK-MEL-5 melanoma, in the assay with MCF7 breast and in the assay on OVCAR-3 ovarian was above 100 µM each time.

As to `CC(=O)OC12c3ccccc3-c3ccccc3C1C1C(=O)OC(=O)C12` (stereo not given), the TGI in the assay with SK-OV-3 ovarian, with HS 578T breast, in the assay on ACHN renal, in the assay on A498 renal, in the assay with CCRF-CEM leukemia and in the assay on HOP-92 NSCLC was above 10 µM throughout. Also, the TGI in the assay with T-47D breast, in the assay with SK-MEL-5 melanoma, with MCF7 breast and in the assay with OVCAR-3 ovarian was above 10 µM in each case.

Regarding `CCOC(=O)c1[nH]cc(C)c1-c1ccc2c(-c3ccccc3)nc3ccccc3n12`, the TGI in the assay with SK-OV-3 ovarian worked out at 23.5 µM; in the assay with HS 578T breast, 6.5 µM; in the assay on ACHN renal, 15.5 µM; in the assay on A498 renal, 9.98 µM; in the assay with CCRF-CEM leukemia, 13 µM; in the assay on HOP-92 NSCLC it was 14 µM. Besides, the TGI turned out to be 18.4 µM in the assay with T-47D breast, 6.29 µM in the assay on SK-MEL-5 melanoma, 14.3 µM in the assay with MCF7 breast and 18.5 µM in the assay with OVCAR-3 ovarian.

With `CCN(CC)CCNc1ccc2nnn3c4ccc(O)cc4c(=O)c1c23`, the TGI with SK-OV-3 ovarian is 40.3 µM; in the assay on HS 578T breast it was 26.6 µM; in the assay on ACHN renal, 14.2 µM; in the assay on A498 renal it was 16 µM; with CCRF-CEM leukemia, 31.6 µM; with HOP-92 NSCLC, 18.2 µM. The TGI is 39.7 µM in the assay on T-47D breast, 15.7 µM in the assay with SK-MEL-5 melanoma, 28.1 µM with MCF7 breast and 22.7 µM in the assay on OVCAR-3 ovarian.

Regarding `OCCOc1ccccc2cccc1-2`, the TGI in the assay on SK-OV-3 ovarian, in the assay on HS 578T breast, in the assay with ACHN renal, with A498 renal, in the assay on CCRF-CEM leukemia and in the assay with HOP-92 NSCLC was above 100 µM in each case. Besides, the TGI with T-47D breast, in the assay on SK-MEL-5 melanoma, in the assay with MCF7 breast and in the assay on OVCAR-3 ovarian was above 100 µM each time.

`CCOC(=O)C(=O)/C(=C/N1C(=O)CC(=O)NC1=S)C(=O)OCC`: the TGI with SK-OV-3 ovarian is above 100 µM; with HS 578T breast, above 100 µM; with ACHN renal, above 100 µM; in the assay on A498 renal it was above 100 µM; in the assay with CCRF-CEM leukemia it was above 100 µM; with HOP-92 NSCLC, above 92.9 µM. The TGI in the assay on T-47D breast was above 100 µM; in the assay with SK-MEL-5 melanoma it was above 100 µM; with MCF7 breast, above 100 µM; in the assay with OVCAR-3 ovarian, above 60.2 µM.

As for `Fc1ccc(-c2sc(-c3cccs3)cc2Cc2cccs2)cc1`, the TGI in the assay on SK-OV-3 ovarian, with HS 578T breast, in the assay with ACHN renal, in the assay with A498 renal, with CCRF-CEM leukemia and in the assay with HOP-92 NSCLC was above 100 µM throughout. The TGI in the assay with T-47D breast, in the assay on SK-MEL-5 melanoma, in the assay on MCF7 breast and with OVCAR-3 ovarian was above 100 µM throughout.

On to `CCOC(=O)c1c2c(c(O)c3ccccc3c(O)n(Cc3ccccc3)c1C)C(=O)C=CC2=O`, for which the TGI in the assay on SK-OV-3 ovarian, in the assay with HS 578T breast, in the assay with ACHN renal, in the assay with A498 renal, with CCRF-CEM leukemia and in the assay with HOP-92 NSCLC was above 100 µM in each case. For the same compound, the TGI in the assay with T-47D breast is above 100 µM; in the assay on SK-MEL-5 melanoma, above 100 µM; with MCF7 breast it was 0.769 µM; in the assay with OVCAR-3 ovarian it was above 100 µM.
